In patent US20030194784A1, “DNA encoding methymycin and pikromycin” (priority 2001, published 2003):

B1: A. eutrophus PHA synthase (phbC gene product), produced in insect cells with a baculovirus vector (enzyme)
chain: AAASTQEGKSQPFKVTPGPFDPATWLEWSRQWQGTEGNGHAAASGIPGLDALAGVKIAPAQLGDIQQRYMKDFSALWQAMAEGKAEATGPLHDRRFAGDAWRTNLPYRFAAAFYLLNARALTELADAVEADAKTRQRIRFAISQWVDAMSPANFLATNPEAQRLLIESGGESLRAGVRNMMEDLTRGKISQTDESAFEVGRNVAVTEGAVVFENEYFQLLQYKPLTDKVHARPLLMVPPCINKYYILDLQPESSLVRHVVEQGHTVFLVSWRNPDASMAGSTWDDYIEHAAIRAIEVARDISGQDKINVLGFCVGGTIVSTALAVLAARGEHPAASVTLLTTLLDFADTGILDVFVDEGHVQLREATLGGGAGAPCALLRGLELANTFSFLRPNDLVWNYVVDNYLKGNTPVPFDLLFWNGDATNLPGPWYCWYLRHTYLQNELKVPGKLTVCGVPVDLASIDVPTYIYGSREDHIVPWTAAYASTALLANKLRFVLGASGHIAGVINPPAKNKRSHWTNDALPESPQQWLAGAIEHHGSWWPDWTAWLAGQAGAKRAAPANYGNARYRAIEPAPGRYVKAKA
notes: The 64 kDa band; On the blots it was denatured (SDS-PAGE); The N-terminus is heterogeneous (starts at A7 or S10); also called PHB synthase; intact PHB synthase (band a)

How the values were obtained:
[1] = target: A. eutrophus PHA synthase (Cupriavidus necator, UniProt P23608); conditions: read-out: apparent Km value (substrate concentration at half-optimal velocity); enzyme concentration constant at 0.95 mg/ml; 40 or 200 μl assay volumes; estimated from FIG. 10
Streptococcus pyogenes = assay: Antibiotic activity by filter paper disc on agar plates; type: cell-based; conditions: for inhibition zone around disc (antibiotic activity against Streptococcus pyogenes): 20 μL of 1.6 mM sample in MeOH on sterilized filter paper disc, Mueller-Hinton agar plates, overnight at 37° C.; for activity against Streptococcus pyogenes: purified compounds, S. pyogenes grown on Mueller-Hinton agar plates
Protocol: The antibiotic activity of a compound of formula (13) and (14) against Streptococcus pyogenes was examined by separately applying 20 μL of each sample (1.6 mM in MeOH) to sterilized filter paper discs which were placed onto the surface of S. pyogenes grown on Mueller-Hinton agar plates (Mangahas, 1996).

[2] = target: the molecule itself; assay: size exclusion chromatography, native MW (about 100-160 kDa and about 50-80 kDa forms)
[3] = Storage stability of purified PHA synthase (activity remaining); type: physicochemical
Text: PHA synthase purified from insect cells appears to be relatively stable.

| Molecule | inhibition zone around disc (antibiotic activity against Streptococcus pyogenes) (Streptococcus pyogenes) | activity against Streptococcus pyogenes (Streptococcus pyogenes) | also measured |
| --- | --- | --- | --- |
| 3-hydroxybutyrate CoA [HBCoA] | – | – | Km [1]: 2500 µM |
| CC[C@H]1OC(=O)[C@H](C)[C@@H](O[C@@H]2O[C@H](C)C[C@H](N(C)C)[C@H]2O)[C@@H](C)C[C@@H](C)C(=O)/C=C/[C@]1(C)O [compound of formula (1), methymycin] | clearly visible inhibition zones | clearly visible inhibition zones | – |
| C[C@@H]1C[C@H](N(C)C)[C@@H](O)[C@H](O[C@H]2[C@@H](C)C[C@@H](C)C(=O)/C=C/[C@@H](C)[C@@H]([C@@H](C)O)OC(=O)[C@@H]2C)O1 [compound of formula (2), neomethymycin] | clearly visible inhibition zones | clearly visible inhibition zones | – |
| CCC1OC(=O)C(C)C(OC2OC(C)CC(N(C)C)C2O[C@@H]2O[C@H](CO)[C@@H](O)[C@H](O)[C@H]2O)C(C)CC(C)C(=O)C=CC1(C)O (stereo partly drawn) [compound of formula (13), C-2′β-glucosylated methymycin] | no such clearings were discernible | – | – |
| B1 | – | – | binding result [2]: binds; synthase activity remained after storage ([3]; after 7 weeks stored at −20° C. in the presence of 50% glycerol): approximately 75%; synthase activity remained after storage ([3]; after 7 weeks stored in liquid N2): approximately 50% |
